In patent publication US20030103900A1, “Use of disease-associated organisms” (priority 2001, published 2003):

System: non-Hodgkins lymphoma
Assay: broad spectrum antibiotic cover in a non-Hodgkins lymphoma patient with mixed bacterial pneumonia
Type: in vivo, human
Conditions: given together: Penicillin 1 million units three times a day i.m., chloramphenicol 1.25 g three times a day i.m., flagyl 400 mg three times a day orally; following one week
Text: If, on the other hand, a disease-associated organism is found within the body of a patient, which organism is classified as beneficial regarding a targeted disease (i.e., the activity of the organism is either causative or synergistic toward the disease), a therapeutic agent which is antagonistic toward such beneficial organism may be administered to the patient for aiding the patient's immune system in fighting against such causative or synergistic organism. Organisms have often been reported to exist in cancer patients both in tumor biopsies and in overt disease, in the treatment of a non-Hodgkins lymphoma patient suffering from mixed bacterial pneumonia, inventor prescribed broad spectrum antibiotic cover-Penicillin 1 million units three times a day, chloramphenicol 1.25 g three times a day, and flagyl 400 mg three times a day; the first two by intramuscular route and the flagyl orally.

Compound | change of cancerous lymph nodes
Cc1ncc([N+](=O)[O-])n1CCO [flagyl] | cancerous lymph nodes shrank and softened
O=C(N[C@H](CO)[C@H](O)c1ccc([N+](=O)[O-])cc1)C(Cl)Cl [chloramphenicol] | cancerous lymph nodes shrank and softened
Penicillin | cancerous lymph nodes shrank and softened
